Laboratory results reported in US20230027075A1, “SULFONAMIDE COMPOUNDS TARGETING CD73 AND ADENOSINE RECEPTORS” (Aurigene Discovery Technologies Limited, priority 2019, published 2023).
pIC50: −log10 of the molar value.

Legend:
[1] = target: T1, human-CD73 (Trp27-Lys547, His-tag) (Homo sapiens, UniProt P21589); assay: CD73 biochemical assay (colorimetric, Malachite Green phosphate detection); conditions: 2 nM CD73, 50 μM AMP; for inhibition at 20 µM: 20 μM compound, read-out: % inhibition at 20 μM (Percent inhibition data in CD73); for pIC50: four-parameter curve fit, read-out: Potency (IC50 values) of selected compounds in CD73, group
T1 construct: human-CD73 (Trp27-Lys547, His-tag); His-tag
T1 sequence (P21589 27-547): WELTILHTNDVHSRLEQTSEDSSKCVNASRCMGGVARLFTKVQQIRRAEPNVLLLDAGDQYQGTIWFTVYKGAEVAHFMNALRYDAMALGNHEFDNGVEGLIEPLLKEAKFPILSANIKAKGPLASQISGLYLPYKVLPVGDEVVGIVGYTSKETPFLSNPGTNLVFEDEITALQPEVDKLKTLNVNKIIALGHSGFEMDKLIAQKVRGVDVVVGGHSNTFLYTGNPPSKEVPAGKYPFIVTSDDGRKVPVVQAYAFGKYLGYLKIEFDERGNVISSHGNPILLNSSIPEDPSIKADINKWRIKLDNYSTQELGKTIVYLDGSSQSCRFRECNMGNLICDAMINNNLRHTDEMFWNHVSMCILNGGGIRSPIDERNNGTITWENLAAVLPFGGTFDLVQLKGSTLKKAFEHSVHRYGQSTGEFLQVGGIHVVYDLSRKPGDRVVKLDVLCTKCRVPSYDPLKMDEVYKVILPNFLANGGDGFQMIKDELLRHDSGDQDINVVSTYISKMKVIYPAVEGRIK
Experimental: A colorimetric-based method was used for assaying compounds of the invention for CD73 enzyme inhibitory activity. Human CD73 catalyzes the conversion of AMP to adenosine with the release of orthophosphate. A Malachite Green Phosphate Detection kit is used to measure the formation of orthophosphate product. […] A compound of the present invention and enzyme are incubated for 30 minutes at room temperature. Next, 20 μL of AMP in assay buffer is added to the plate. The final concentration of CD73 and AMP are 2 nM and 50 μM respectively. Following 30 minutes reaction at room temperature, 20 μL of Malachite reagent is added to all the reaction wells. The formation of green complex formed between Malachite Green, molybdate and free orthophosphate is measured on a plate reader (620 nm).

A2aR = target: T2, A2aR (Homo sapiens, UniProt P29274); assay: A2aR biochemical assay (TR-FRET binding, Tag-lite A2aR labelled cells, fluorescent antagonist); conditions: 10 nM fluorescent A2aR antagonist; for inhibition at 20 µM: read-out: % inhibition at 20 μM (Percent inhibition data in A2aR); for pIC50: four-parameter curve fit, read-out: Potency (IC50 values) of selected compounds in A2aR, group
T2 construct: expressed in transfected cells
T2 sequence (P29274 whole entry): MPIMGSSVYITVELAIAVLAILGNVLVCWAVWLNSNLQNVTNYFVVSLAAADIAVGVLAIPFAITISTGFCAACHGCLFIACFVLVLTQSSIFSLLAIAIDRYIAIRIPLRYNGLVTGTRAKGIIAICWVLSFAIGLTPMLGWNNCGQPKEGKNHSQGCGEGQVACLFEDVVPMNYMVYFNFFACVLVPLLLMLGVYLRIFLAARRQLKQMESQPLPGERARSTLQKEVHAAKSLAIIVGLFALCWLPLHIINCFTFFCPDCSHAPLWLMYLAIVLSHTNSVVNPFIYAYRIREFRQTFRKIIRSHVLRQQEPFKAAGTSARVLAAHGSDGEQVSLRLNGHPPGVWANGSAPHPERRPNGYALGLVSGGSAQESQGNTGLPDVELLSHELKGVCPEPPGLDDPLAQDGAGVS
Experimental: The compounds of present invention were assayed for A2aR enzyme binding activity in a TR-FRET based method. Typically, 10 μL of A2aR labelled cells in assay buffer (Tag-lite, 1×) is added to a 384-well plate containing 5 μL of a compound of present invention in final 1% DMSO, serially diluted in 1:5 in a 5-6 point titration. The aforesaid compound and cells are incubated for 30 minutes at room temperature. Next, 5 μL of A2aR antagonist (fluorescent ligand) in assay buffer is added to the plate. The final concentration of A2aR antagonist is 10 nM. Following 30 minutes reaction at room temperature, the plate was read on a plate reader (Ex: 340 nm Em: 615 nm and 665 nm) to measure the binding of test compound to A2aR cells. The results are interpreted as percentage inhibition as presented in Table-2A of binding by the test compound with respect to the DMSO control.

[2] = 20 μM compound, vs DMSO control

Row | inhibition at 20 µM [1] [%] | pIC50 [1] | inhibition at 20 µM (A2aR; [2]) [%] | pIC50 (A2aR) | % inhibition at 20 μM (Percent inhibition data in A2aR) (A2aR; [2]) [%] | SMILES
1 | 91 | < 6.00 | 78 | > 7.60 | – | NC(=O)c1cc(S(=O)(=O)Nc2cccc(CNc3nc(N)n4nc(-c5ccco5)nc4n3)c2)cc(Cl)c1O [Example A1, 5-(N-(3-(((7-amino-2-(furan-2-yl)-[1,2,4]triazolo[1,5-a][1,3,5]triazin-5-yl)amino)methyl)phenyl)sulfamoyl)-3-chloro-2-hydroxybenzamide]
2 | 97 | 6.00 to 6.96 | 80 | < 7.30 | – | NC(=O)c1cc(S(=O)(=O)Nc2ccc(CNc3nc(N)n4nc(-c5ccco5)nc4n3)cc2)cc(Cl)c1O [Example A2, 5-(N-(4-(((7-amino-2-(furan-2-yl)-[1,2,4]triazolo[1,5-a][1,3,5]triazin-5-yl)amino)methyl)phenyl)sulfamoyl)-3-chloro-2-hydroxybenzamide]
3 | 96 | 6.00 to 6.96 | 83 | > 7.60 | – | NC(=O)c1cc(S(=O)(=O)Nc2ccc(CCNc3nc(N)n4nc(-c5ccco5)nc4n3)cc2)cc(Cl)c1O [Example A3, 5-(N-(4-(2-((7-amino-2-(furan-2-yl)-[1,2,4]triazolo[1,5-a][1,3,5]triazin-5-yl)amino)ethyl)phenyl)sulfamoyl)-3-chloro-2-hydroxybenzamide]
4 | 27 | – | 81 | – | – | Nc1nc(NCCc2ccc(NS(=O)(=O)c3cc(F)c(O)c(Cl)c3)cc2)nc2nc(-c3ccco3)nn12 [Example A4, N-(4-(2-((7-amino-2-(furan-2-yl)-[1,2,4]triazolo[1,5-a][1,3,5]triazin-5-yl)amino)ethyl)phenyl)-3-chloro-5-fluoro-4-hydroxybenzenesulfonamide]
5 | 99 | 6.00 to 6.96 | 84 | > 7.60 | – | NC(=O)c1cc(S(=O)(=O)Nc2ccc(CCNc3nc(N)n4nc(-c5ccco5)nc4n3)c(O)c2)cc(Cl)c1O [Example A5, 5-(N-(4-(2-((7-amino-2-(furan-2-yl)-[1,2,4]triazolo[1,5-a][1,3,5]triazin-5-yl)amino)ethyl)-3-hydroxyphenyl)sulfamoyl)-3-chloro-2-hydroxybenzamide]
6 | 98 | 6.00 to 6.96 | 79 | – | – | NC(=O)c1cc(S(=O)(=O)Nc2ccc(CCNc3nc(N)n4nc(-c5ccco5)nc4n3)c(F)c2)cc(Cl)c1O [Example A6, 5-(N-(4-(2-((7-amino-2-(furan-2-yl)-[1,2,4]triazolo[1,5-a][1,3,5]triazin-5-yl)amino)ethyl)-3-fluorophenyl)sulfamoyl)-3-chloro-2-hydroxybenzamide]
7 | 42 | – | 84 | – | – | NC(=O)c1cc(S(=O)(=O)Nc2ccc(CCNc3nc(N)n4nc(-c5ccco5)nc4n3)cc2F)cc(Cl)c1O [Example A7, 5-(N-(4-(3-((7-amino-2-(furan-2-yl)-[1,2,4]triazolo[1,5-a][1,3,5]triazin-5-yl)amino)ethyl)-2-fluorophenyl)sulfamoyl)-3-chloro-2-hydroxybenzamide]
8 | 70 | – | 81 | – | – | CC(=O)Nc1nc(NCCc2ccc(NS(=O)(=O)c3cc(Cl)c(O)c(C(N)=O)c3)cc2)nc2nc(-c3ccco3)nn12 [Example A8, 5-(N-(4-(2-((7-acetamido-2-(furan-2-yl)-[1,2,4]triazolo[1,5-a][1,3,5]triazin-5-yl)amino)ethyl)phenyl)sulfamoyl)-3-chloro-2-hydroxybenzamide]
9 | 39 | – | 82 | – | – | CC(C)COC(=O)Nc1nc(NCCc2ccc(NS(=O)(=O)c3cc(Cl)c(O)c(C(N)=O)c3)cc2)nc2nc(-c3ccco3)nn12 [Example A9, Isobutyl (5-((4-((3-carbamoyl-5-chloro-4-hydroxyphenyl)sulfonamido)phenethyl)amino)-2-(furan-2-yl)-[1,2,4]triazolo[1,5-a][1,3,5]triazin-7-yl)carbamate]
10 | 17 | – | 88 | – | – | Nc1nc(NCCc2ccc(NS(=O)(=O)c3ccc(O)c(C(F)(F)F)c3)cc2)nc2nc(-c3ccco3)nn12 [Example A10, N-(4-(2-((7-amino-2-(furan-2-yl)-[1,2,4]triazolo[1,5-a][1,3,5]triazin-5-yl)amino)ethyl)phenyl)-4-hydroxy-3-(trifluoromethyl)benzenesulfonamide]
11 | 98 | > 7.00 | – | > 7.60 | 88 | NC(=O)c1cc(S(=O)(=O)Nc2ccc(CCCNc3nc(N)n4nc(-c5ccco5)nc4n3)cc2)cc(Cl)c1O [Example A11, 5-(N-(4-(3-((7-amino-2-(furan-2-yl)-[1,2,4]triazolo[1,5-a][1,3,5]triazin-5-yl)amino)propyl)phenyl)sulfamoyl)-3-chloro-2-hydroxybenzamide]
12 | 99 | > 7.00 | 72 | < 7.30 | – | NC(=O)c1cc(S(=O)(=O)Nc2ccc(CCCOc3nc(N)n4nc(-c5ccco5)nc4n3)cc2)cc(Cl)c1O [Example A12, 5-(N-(4-(3-((7-amino-2-(furan-2-yl)-[1,2,4]triazolo[1,5-a][1,3,5]triazin-5-yl)oxy)propyl)phenyl)sulfamoyl)-3-chloro-2-hydroxybenzamide]
13 | 97 | > 7.00 | 83 | 7.30 to 7.60 | – | NC(=O)c1cc(S(=O)(=O)Nc2ccc(CCCNc3nc(N)n4nc(-c5ccco5)nc4n3)c(O)c2)cc(Cl)c1O [Example A13, 5-(N-(4-(3-((7-amino-2-(furan-2-yl)-[1,2,4]triazolo[1,5-a][1,3,5]triazin-5-yl)amino)propyl)-3-hydroxyphenyl)sulfamoyl)-3-chloro-2-hydroxybenzamide]
14 | 94 | > 7.00 | 82 | – | – | NC(=O)c1cc(S(=O)(=O)Nc2ccc(CCCNc3nc(N)n4nc(-c5ccco5)nc4n3)c(F)c2)cc(Cl)c1O [Example A14, 5-(N-(4-(3-((7-amino-2-(furan-2-yl)-[1,2,4]triazolo[1,5-a][1,3,5]triazin-5-yl)amino)propyl)-3-fluorophenyl)sulfamoyl)-3-chloro-2-hydroxybenzamide]
15 | 96 | 6.00 to 6.96 | 83 | – | – | NC(=O)c1cc(S(=O)(=O)Nc2ccc(CCCNc3nc(N)n4nc(-c5ccco5)nc4n3)cc2F)cc(Cl)c1O [Example A15, 5-(N-(4-(3-((7-amino-2-(furan-2-yl)-[1,2,4]triazolo[1,5-a][1,3,5]triazin-5-yl)amino)propyl)-2-fluorophenyl)sulfamoyl)-3-chloro-2-hydroxybenzamide]
16 | – | – | 78 | < 7.30 | – | NC(=O)c1cc(S(=O)(=O)Nc2ccc(CCCNc3cc(N)n4nc(-c5ccco5)nc4n3)cc2F)cc(Cl)c1O [Example A23, 5-(N-(4-(3-((7-amino-2-(furan-2-yl)-[1,2,4]triazolo[1,5-a]pyrimidin-5-yl)amino)propyl)-2-fluorophenyl)sulfamoyl)-3-chloro-2-hydroxybenzamide]
17 | – | – | 85 | – | – | NC(=O)c1cc(S(=O)(=O)Nc2cccc(NCCNc3nc(N)n4nc(-c5ccco5)nc4n3)c2)cc(Cl)c1O [Example C2, 5-(N-(3-((2-((7-amino-2-(furan-2-yl)-[1,2,4]triazolo[1,5-a][1,3,5]triazin-5-yl)amino)ethyl)amino)phenyl)sulfamoyl)-3-chloro-2-hydroxybenzamide]
